Laboratory results as given in US20260138970A1, “MODULATORS OF THE CALCIUM SIGNALING CASCADE” (FONDAZIONE TELETHON ETS, priority 2022, published 2026).

Columns and labels:
Format in all cases: cell-based
ENaC = assay: Short-circuit current recordings on human cultured bronchial epithelia, ENaC function; settings: apical addition; ARN7149 10 μM, ARN11391 20 μM, ARN4550 20 μM, UTP 10 nM; FIG. 9
From the text: In a further experimental setting, snapwell supports (cc3801, Corning) carrying differentiated bronchial epithelia generated in vitro were mounted in a vertical chamber resembling an Ussing system with internal fluid circulation (EM-CSYS-8, Physiologic Instruments, San Diego, CA, USA). The apical and basolateral hemichambers were filled with a solution containing (in mM): 126 NaCl, 0.38 KH2PO4, 2.13 K2HPO4, 1 MgSO4, 1 CaCl2), 24 NaHCO3, and 10 glucose. Both sides were continuously bubbled with a gas mixture containing 5% CO2 and 95% air. The temperature of the solution was kept at 37° C. throughout the experiment.
During recordings, the following molecules (in addition to ARN7149, ARN11391, and ARN4550) were added in the apical solution: elastase (SE2093002, Serva); UTP (U6625, Merck); amiloride (A7410, Merck). Transepithelial voltage was short-circuited with a voltage-clamp (VCC MC8, Physiologic Instruments, San Diego, CA, USA) connected to the apical and basolateral chambers via Ag—AgCl electrodes and agar bridges (2% agar in 1 M KCl). The offset between voltage electrodes and the fluid resistance were cancelled before experiments. The resulting short-circuited current from each channel was recorded on a personal computer with the Acquire & Analize 2.3 software (Physiologic Instruments, San Diego, CA, USA).

CCK1 receptor = target: T1, CCK1 receptor (Homo sapiens, UniProt P32238); assay: Fluo-4 Ca2+ assay in Chem-1 cells expressing CCK1 receptor; settings: CCK8s 0.25 nM; vs vehicle (DMSO); FIG. 10
T1 construct: host or cells: Chem-1 cells
T1 sequence (P32238 1-428): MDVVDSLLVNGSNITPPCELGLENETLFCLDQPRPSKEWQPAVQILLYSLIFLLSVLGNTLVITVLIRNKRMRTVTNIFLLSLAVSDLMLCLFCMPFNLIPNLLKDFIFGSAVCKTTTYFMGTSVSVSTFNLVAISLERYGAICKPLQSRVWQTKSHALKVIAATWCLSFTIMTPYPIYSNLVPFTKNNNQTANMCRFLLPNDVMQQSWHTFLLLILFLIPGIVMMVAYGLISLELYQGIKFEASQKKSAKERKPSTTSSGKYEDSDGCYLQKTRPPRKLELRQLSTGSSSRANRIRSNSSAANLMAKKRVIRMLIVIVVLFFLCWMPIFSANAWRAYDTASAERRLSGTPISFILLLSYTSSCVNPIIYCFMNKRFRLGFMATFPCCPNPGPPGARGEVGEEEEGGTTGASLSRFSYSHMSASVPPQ
Method: Chem-1 cells expressing the CCK1 receptor (HTS184RTA, Merck) were cultured in Dulbecco's MEM/F12 (ECM0090L, EuroClone) with 10% fetal bovine serum, 2 mM L-glutamine, 100 U/ml penicillin and 100 μg/ml streptomycin.
In a further experimental setting, experiments were performed using as above the FLUOstar Omega (BMG Labtech, Offenburg, Germany) microplate reader equipped with syringe pumps and optical excitation/emission filters optimized for yellow fluorescent protein (YFP) fluorescence (ET500/20× and ET535/30m, respectively; Chroma Technology Corporation). FRT and Chem-1 cells were cultured until confluence in 96-well microplates (cc3603, Corning). Cells were washed 2 times with PBS (150 μl/wash) and then loaded for 1 h at 37° C. with 5 μM Fluo-4/AM (Thermo Fisher Scientific; catalog number: F23917) in PBS containing 10 mM glucose, 0.5 mM sulfinpyrazone, and 1% fetal bovine serum. […] Fluo-4 fluorescence (500 nm excitation, 535 nm emission) was detected every 200 ms for 16-40 s. Two seconds after the start of fluorescence recording, the reader automatically injected 165 μl of a modified PBS containing 136 mM KCl instead of NaCl. […] The Fluo-4 fluorescence increase was quantified using a procedure compiled in Microsoft Excel after background subtraction and normalization for the initial value measured before UTP or CCK8s addition.

TMEM16A = assay: HS-YFP assay in ITPR-defective HEK293 cells transiently transfected with TMEM16A; settings: UTP 5 μM, compound 10 μM, FIG. 2D
T267M ITPR1 = target: T2, T267M ITPR1 (Homo sapiens, UniProt Q14643, T267M); assay: IP3 uncaging assay, HEK293 cells expressing T267M-ITPR1; settings: compound 10 μM; tetracycline-treated; FIG. 6D
T2 construct: expressed in transfected cells
Method: HEK293 cells stably transfected with tetracycline-inducible expression of wild type or mutant (R269W or T267M) ITPR1, kindly provided by Prof. S. R. Wayne Chen (University of Calgary; ref. 14), were cultured in a mixture of Dulbecco's Modified Eagle Medium (DMEM, high glucose version) and Ham's F12 (1:1) and supplemented with 10% fetal bovine serum, 2 mM L-glutamine, 100 U/ml penicillin and 100 μg/ml streptomycin. Cells were selected with 0.5 mg/ml hygromycin B and induced with 1 μg/ml tetracycline.
FRT and HEK293 cells were cultured in μ-Plate96 microplates (Ibidi) at subconfluent condition. Cells were washed 2 times with PBS (150 μl/wash) and then loaded for 45 min at 37° C. with 1 μM ci-IP3/PM (Tocris; catalog number: 6210/10U) and 5 μM Fluo-4/AM (Thermo Fisher Scientific) in PBS containing 10 mM glucose, 0.5 mM sulfinpyrazone and 1% fetal bovine serum. After 45 min, cells were further incubated for 1 h at 37° C. with a fresh PBS solution containing Fluo-4/AM, glucose, sulfinpyrazone, serum, but no ci-IP3/PM. […] Analysis was performed with MetaFluor software, by quantifying Fluo-4 fluorescence in manually selected single cell region of interest (ROI). […] After background subtraction, fluorescence traces were normalized for the initial value.

T2 sequence (Q14643 whole entry T267M): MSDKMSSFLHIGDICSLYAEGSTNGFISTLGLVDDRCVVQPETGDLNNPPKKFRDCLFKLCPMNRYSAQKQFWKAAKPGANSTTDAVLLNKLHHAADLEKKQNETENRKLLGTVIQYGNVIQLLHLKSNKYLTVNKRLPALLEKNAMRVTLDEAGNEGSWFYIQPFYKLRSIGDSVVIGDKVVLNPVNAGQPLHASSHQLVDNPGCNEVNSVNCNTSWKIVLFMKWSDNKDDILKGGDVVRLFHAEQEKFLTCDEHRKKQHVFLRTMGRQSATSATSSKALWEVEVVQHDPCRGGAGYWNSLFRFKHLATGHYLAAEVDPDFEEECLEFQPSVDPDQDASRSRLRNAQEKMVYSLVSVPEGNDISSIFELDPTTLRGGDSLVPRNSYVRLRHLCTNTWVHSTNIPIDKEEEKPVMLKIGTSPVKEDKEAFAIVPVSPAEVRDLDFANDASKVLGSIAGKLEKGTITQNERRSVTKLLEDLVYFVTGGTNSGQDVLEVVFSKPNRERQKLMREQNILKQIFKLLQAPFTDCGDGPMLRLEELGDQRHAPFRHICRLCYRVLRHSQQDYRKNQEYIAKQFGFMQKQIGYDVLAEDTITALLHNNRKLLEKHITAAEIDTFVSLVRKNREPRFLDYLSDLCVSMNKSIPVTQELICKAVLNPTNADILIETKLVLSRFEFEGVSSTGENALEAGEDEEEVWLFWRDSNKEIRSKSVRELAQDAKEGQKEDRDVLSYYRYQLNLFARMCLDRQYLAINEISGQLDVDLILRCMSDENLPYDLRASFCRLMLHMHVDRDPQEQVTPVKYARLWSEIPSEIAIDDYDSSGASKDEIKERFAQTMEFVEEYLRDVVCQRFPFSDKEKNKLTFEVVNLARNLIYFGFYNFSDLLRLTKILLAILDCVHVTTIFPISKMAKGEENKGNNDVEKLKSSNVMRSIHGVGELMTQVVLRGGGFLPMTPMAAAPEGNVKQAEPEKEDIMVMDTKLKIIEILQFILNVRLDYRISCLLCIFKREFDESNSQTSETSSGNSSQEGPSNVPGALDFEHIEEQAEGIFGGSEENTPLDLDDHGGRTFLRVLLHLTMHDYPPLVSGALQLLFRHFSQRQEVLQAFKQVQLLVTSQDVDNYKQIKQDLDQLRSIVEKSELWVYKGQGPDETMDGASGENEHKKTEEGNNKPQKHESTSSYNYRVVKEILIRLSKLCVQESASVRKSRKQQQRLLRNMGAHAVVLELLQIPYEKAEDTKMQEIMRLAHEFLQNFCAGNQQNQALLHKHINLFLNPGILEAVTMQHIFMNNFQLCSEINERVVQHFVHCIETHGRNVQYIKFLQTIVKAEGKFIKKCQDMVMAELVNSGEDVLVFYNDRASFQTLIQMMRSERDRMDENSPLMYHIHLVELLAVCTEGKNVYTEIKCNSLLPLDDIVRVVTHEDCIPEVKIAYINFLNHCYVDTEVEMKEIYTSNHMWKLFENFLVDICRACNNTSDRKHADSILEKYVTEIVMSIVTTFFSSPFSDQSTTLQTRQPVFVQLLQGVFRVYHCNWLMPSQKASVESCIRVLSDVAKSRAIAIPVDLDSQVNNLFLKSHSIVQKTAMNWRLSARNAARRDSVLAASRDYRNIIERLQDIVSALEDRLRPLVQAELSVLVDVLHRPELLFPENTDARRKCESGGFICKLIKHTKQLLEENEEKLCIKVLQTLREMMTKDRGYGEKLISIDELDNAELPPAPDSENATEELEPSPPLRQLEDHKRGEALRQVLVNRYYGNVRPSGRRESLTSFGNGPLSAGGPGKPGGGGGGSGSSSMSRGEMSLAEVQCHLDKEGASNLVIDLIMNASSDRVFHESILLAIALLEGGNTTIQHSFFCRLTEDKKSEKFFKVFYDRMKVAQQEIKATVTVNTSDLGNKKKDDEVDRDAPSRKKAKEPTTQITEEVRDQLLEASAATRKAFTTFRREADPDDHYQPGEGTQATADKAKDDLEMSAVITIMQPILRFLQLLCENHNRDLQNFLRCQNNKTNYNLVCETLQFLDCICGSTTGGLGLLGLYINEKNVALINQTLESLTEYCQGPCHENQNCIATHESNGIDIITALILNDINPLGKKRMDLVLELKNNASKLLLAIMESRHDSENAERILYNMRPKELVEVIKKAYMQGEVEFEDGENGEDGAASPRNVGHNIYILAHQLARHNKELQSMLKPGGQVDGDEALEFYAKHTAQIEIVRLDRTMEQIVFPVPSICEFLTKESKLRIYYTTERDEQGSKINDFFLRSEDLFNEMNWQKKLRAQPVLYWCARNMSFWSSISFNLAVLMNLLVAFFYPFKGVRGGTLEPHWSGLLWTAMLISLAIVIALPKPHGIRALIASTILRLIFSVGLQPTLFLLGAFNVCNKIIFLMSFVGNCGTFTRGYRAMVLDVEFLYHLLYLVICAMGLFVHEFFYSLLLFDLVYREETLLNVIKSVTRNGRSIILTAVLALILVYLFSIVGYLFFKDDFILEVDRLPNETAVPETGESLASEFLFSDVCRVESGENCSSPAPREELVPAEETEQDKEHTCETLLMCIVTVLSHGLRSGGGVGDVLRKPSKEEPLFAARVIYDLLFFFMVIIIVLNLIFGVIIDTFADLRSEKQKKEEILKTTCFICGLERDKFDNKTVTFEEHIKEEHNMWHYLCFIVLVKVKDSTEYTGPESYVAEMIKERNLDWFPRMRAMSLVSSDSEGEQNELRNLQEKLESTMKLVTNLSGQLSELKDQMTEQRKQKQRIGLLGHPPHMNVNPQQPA

SMILES	ENaC current decay (ENaC inhibition), short-circuit current (ENaC)	effect on CCK8s-induced Ca2+ mobilization (CCK1 receptor)	activation of TMEM16A by UTP with/without compound (HS-YFP) (TMEM16A)	Ca2+ mobilization elicited by IP3 uncaging, T267M-ITPR1 (T267M ITPR1)
OCc1ccccc1CN(Cc1ccnc(N2CCCC2)n1)c1ccc(F)cc1 [ARN4550, [2-[[4-Fluoro-N-[(2-pyrrolidin-1-ylpyrimidin-4-yl)methyl]anilino]methyl]phenyl]methanol]	caused ENaC current decay	significantly enhanced	–	–
CCc1cc(-c2cc(NCCCOc3ccccc3C)nc(N)n2)n(C)n1 [ARN7149, 6-(3-Ethyl-1-methyl-1H-pyrazol-5-yl)-N^4-(3-(o-tolyloxy)propyl)pyrimidine-2,4-diamine]	caused ENaC current decay	lack of activity	–	–
CCn1nc2c(c1C(=O)Nc1ccccc1OCC1CCCCO1)CCCC2 (stereo not drawn) [ARN11391, 2-Ethyl-N-[2-(tetrahydropyran-2-ylmethoxy)phenyl]-4,5,6,7-tetrahydroindazole-3-carboxamide]	–	–	no activation	significantly amplified
